Results from ChEMBL document CHEMBL1201862, “PubChem BioAssay data set” (2004).
Activity calls are given as the source filed them.

Experiments:
Exodeoxyribonuclease V = Exodeoxyribonuclease V (Escherichia coli (strain K12), UniProt P04993+P07648+P08394); test: E. coli RecBCD inhibitors, dose response, counter-screen for AddAB inhibitor project, absorbance, V66 E. coli, mutant T4 phage (AID 492957); format: functional, cell-based, Escherichia coli str. K-12 substr. MG1655
[1] = cytotoxicity in HEK-293T cells, dose response, cytotoxicity control for TCR NF-kB inhibitor project, luminescence, T-cell screen hits (AID 489026); format: functional, cell-based;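 further: cells exposed to compound about 14 hours before the viability readout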
[2] = Counterscreen for AddAB inhibitors: absorbance-based bacterial cell-based high throughput dose response assay for inhibitors of bacterial viability. [Related pubchem assays (depositor defined):AID435030, AID449728, AID449731, AID488942, AID488955, AID488956]; format: functional
INS1 = test: beta cell apoptosis inhibitors, cytokine rescue, dose response, luminescence, retest (AID 449756); format: functional, cell-based; conditions: Rattus norvegicus;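 further: cell death triggered by IL-1 beta plus TNF-alpha plus IFN-gamma mixture; protective hits raise ATP signal compared with cytokine alone wells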
Protein Wnt-3a = Protein Wnt-3a (Mus musculus, UniProt P27467); test: Wnt3a-driven reporter signaling inhibition, dose response, selectivity assay for Gli-SUFU antagonist project, Wnt-LIGHT cells, luminescence (AID 651570); format: functional; conditions: read-out: IC50_Mean;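 further: Wnt-LIGHT reporter cells stimulated with conditioned medium from Wnt3a-producing cells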
Chain of Protein Wnt-3a (P27467 whole entry): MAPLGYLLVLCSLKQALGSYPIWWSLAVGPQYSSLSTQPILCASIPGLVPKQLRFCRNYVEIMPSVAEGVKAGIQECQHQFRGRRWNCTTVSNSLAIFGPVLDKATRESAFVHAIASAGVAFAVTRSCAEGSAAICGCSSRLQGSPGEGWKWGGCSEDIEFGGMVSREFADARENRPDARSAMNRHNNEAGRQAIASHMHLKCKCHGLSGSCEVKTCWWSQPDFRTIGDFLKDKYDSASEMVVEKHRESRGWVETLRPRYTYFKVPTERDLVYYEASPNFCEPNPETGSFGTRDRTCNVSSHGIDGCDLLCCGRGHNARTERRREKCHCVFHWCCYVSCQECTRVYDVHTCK

[3] = inhibitors of firefly luciferase expression or activity, dose response, H4 neuroglioma cells, luminescence (AID 1990); format: functional, cell-based
[4] = Luminescence Cell-Based Dose Response HTS to Identify Inhibitors of 5'UTR Stem-Loop Driven Prion Protein mRNA Translation in H4 Neuroglioblastoma Cells. [Related pubchem assays: 1827 (Project Summary), 1813 (Primary HTS)]; format: functional
[5] = inhibitors of SNCA 5'UTR-driven reporter translation, confirmation, H4 neuroglioma cells, luminescence (AID 1988); format: functional, cell-based
Vero = test: West Nile virus antiviral activity, cell-based, CPE readout (AID 1621); format: functional; conditions: Chlorocebus sabaeus
[6] = Shn3 3'UTR reporter inhibitors, dose response, cell-based, Clone20 osteoblasts, firefly luciferase, cherry-picked (AID 624132); format: functional;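 further: firefly luciferase luminescence from reporter carrying the Shn3 3'UTR in osteoblasts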
[7] = HepG2 cell cytotoxicity, dose response, cytotoxicity control for Shn3 inhibitor project, CellTiter-Glo, cherry-picked (AID 624134); format: functional, cell-based
[8] = control 3'UTR Renilla luciferase suppression, dose response, counter-screen for Shn3 inhibitor project, cell-based, Clone20-Shn3RL, cherry-picked (AID 624133); format: functional
[9] = biological target: Photoreceptor-specific nuclear receptor (Homo sapiens, UniProt Q9Y5X4); format: functional, cell-based;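 further: CHO-S cells with Gal4-NCOR and VP16-NR2E3 two-hybrid luciferase reporter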
Chain of Photoreceptor-specific nuclear receptor (Q9Y5X4 whole entry, the tested form may be a part): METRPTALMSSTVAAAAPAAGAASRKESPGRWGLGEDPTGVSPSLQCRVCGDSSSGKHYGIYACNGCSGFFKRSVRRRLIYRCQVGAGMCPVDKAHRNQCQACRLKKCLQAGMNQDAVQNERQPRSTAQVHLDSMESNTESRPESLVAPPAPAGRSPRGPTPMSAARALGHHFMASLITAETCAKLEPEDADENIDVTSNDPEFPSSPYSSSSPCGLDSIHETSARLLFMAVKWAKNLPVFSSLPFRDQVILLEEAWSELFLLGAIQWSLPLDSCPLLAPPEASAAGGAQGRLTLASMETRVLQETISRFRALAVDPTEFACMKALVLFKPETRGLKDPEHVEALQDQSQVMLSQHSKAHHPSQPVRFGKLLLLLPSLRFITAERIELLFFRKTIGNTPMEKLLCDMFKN

[10] = Luminescence Cell-Based Dose Confirmation HTS to Identify Activators of 5'UTR Stem-Loop Driven Alpha-Synuclein mRNA Translation in H4 Neuroglioblastoma Cells. [Related pubchem assays: 1829 (Project Summary), 1814 (Primary HTS)]; format: functional
[11] = Luminescence Cell-Based Dose Response HTS to Identify Activators of Luciferase Translation or Activity in H4 […] Cells. [Related pubchem assays: 1829 (Project Summary), 1814 (Primary HTS)]; format: functional
H4 = test: Luminescence Cell-Based Dose Response HTS to Identify Activators of 5'UTR Stem-Loop Driven Prion Protein mRNA Translation in H4 Neuroglioblastoma Cells. [Related pubchem assays: 1829 (Project Summary), 1814 (Primary HTS)]; format: functional; conditions: Homo sapiens
[12] = biological target: Multidrug resistance protein CDR2 (Candida albicans (strain SC5314 / ATCC MYA-2876) (Yeast), UniProt P78595); test: CaCDR2 efflux pump inhibitors in yeast, dose response, S. cerevisiae AD1-8u, singleplex, Cherry Pick2 set (AID 623994); format: functional; conditions: read-out: EC50_MICROM
[13] = biological target: T1, Replicative DNA helicase DnaB (Mycobacterium tuberculosis, UniProt P9WMR3); test: DnaB intein splicing inhibitors, dose response, biochemical, cell-free fluorescence (AID 449749); format: functional
T1 sequence (P9WMR3 whole entry): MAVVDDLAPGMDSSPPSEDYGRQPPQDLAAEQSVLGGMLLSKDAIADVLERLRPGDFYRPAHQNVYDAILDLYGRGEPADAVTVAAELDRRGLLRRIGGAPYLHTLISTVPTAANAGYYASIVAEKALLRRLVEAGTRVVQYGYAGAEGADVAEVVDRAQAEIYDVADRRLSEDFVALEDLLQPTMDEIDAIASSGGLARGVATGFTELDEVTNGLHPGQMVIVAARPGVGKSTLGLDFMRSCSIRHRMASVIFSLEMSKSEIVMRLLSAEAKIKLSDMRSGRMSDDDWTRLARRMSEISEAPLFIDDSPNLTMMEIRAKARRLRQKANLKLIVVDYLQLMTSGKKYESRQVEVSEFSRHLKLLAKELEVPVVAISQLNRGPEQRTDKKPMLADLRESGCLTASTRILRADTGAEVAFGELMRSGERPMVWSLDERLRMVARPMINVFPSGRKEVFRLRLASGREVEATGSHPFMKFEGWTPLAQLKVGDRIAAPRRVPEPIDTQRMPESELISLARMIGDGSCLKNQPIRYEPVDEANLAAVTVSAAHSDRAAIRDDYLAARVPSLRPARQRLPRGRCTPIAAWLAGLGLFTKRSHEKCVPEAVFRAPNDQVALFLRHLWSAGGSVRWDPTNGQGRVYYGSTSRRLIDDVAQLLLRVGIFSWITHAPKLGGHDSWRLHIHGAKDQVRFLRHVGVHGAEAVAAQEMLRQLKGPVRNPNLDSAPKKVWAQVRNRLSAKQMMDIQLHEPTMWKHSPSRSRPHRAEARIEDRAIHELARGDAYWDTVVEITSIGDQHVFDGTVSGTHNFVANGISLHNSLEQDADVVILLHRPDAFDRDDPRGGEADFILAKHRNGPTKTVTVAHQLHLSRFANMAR

Protein RecA = biological target: T2, Protein RecA (Mycobacterium tuberculosis, UniProt P9WHJ3); test: Fluorescence Cell-Free Homogeneous Dose Retest to Identify Inhibitors of RecA-Intein Splicing Activity. [Related pubchem assays (depositor defined):AID2097, AID2223, AID489010, AID492950]; format: functional
T2 sequence (P9WHJ3 whole entry): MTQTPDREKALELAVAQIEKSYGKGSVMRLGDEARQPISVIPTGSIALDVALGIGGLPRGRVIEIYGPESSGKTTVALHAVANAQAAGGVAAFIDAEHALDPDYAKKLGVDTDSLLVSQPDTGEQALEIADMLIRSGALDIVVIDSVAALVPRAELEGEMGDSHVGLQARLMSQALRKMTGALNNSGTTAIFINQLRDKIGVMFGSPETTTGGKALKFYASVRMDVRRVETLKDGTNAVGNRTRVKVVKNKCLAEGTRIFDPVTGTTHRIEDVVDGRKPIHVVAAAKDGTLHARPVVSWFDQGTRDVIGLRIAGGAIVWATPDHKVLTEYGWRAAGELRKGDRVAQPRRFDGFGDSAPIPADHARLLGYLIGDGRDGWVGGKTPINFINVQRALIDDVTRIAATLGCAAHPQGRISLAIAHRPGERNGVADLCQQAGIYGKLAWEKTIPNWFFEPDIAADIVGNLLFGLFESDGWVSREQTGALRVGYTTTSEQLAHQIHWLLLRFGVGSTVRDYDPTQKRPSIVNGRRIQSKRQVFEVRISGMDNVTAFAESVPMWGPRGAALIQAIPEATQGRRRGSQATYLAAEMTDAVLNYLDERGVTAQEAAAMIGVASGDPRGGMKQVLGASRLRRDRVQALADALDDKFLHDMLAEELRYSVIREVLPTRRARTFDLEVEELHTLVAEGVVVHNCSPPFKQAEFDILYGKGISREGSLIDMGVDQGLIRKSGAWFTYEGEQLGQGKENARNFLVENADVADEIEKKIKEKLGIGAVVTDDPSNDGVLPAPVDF

[14] = biological target: Mitochondrial peptide methionine sulfoxide reductase (Bos taurus, UniProt P54149); format: functional;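 further: absorbance read-out, biochemical high-throughput dose-response screen for MsrA inhibitors, confirmatory; recombinant bovine MsrA coupled to E. coli TrxB with NADPH and selenocystamine; potency is for inhibitors of MsrA activity on DMSO substrate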
Chain of Mitochondrial peptide methionine sulfoxide reductase (P54149 whole entry): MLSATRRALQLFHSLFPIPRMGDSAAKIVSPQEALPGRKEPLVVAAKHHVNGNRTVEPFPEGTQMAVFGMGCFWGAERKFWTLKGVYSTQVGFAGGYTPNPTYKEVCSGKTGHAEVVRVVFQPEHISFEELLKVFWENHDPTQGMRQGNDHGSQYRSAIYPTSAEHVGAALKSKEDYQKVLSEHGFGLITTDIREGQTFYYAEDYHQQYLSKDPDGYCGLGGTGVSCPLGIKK

Chain of Exodeoxyribonuclease V (P04993 whole entry): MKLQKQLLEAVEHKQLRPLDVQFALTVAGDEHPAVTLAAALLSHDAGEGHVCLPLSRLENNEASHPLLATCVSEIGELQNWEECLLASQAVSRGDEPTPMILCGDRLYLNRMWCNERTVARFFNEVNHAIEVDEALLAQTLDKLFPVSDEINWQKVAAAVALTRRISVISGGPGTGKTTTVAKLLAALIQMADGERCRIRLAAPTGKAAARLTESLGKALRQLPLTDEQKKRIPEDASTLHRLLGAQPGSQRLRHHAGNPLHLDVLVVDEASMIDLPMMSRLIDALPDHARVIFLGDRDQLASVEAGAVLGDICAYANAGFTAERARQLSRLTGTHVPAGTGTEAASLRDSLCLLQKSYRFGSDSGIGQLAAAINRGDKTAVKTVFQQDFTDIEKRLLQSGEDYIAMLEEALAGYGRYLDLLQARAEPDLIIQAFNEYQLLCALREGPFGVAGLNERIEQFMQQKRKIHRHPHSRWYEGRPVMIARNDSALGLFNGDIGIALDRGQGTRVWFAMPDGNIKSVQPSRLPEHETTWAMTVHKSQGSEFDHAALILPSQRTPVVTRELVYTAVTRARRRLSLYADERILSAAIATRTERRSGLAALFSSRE
Chain of Exodeoxyribonuclease V (P07648 whole entry): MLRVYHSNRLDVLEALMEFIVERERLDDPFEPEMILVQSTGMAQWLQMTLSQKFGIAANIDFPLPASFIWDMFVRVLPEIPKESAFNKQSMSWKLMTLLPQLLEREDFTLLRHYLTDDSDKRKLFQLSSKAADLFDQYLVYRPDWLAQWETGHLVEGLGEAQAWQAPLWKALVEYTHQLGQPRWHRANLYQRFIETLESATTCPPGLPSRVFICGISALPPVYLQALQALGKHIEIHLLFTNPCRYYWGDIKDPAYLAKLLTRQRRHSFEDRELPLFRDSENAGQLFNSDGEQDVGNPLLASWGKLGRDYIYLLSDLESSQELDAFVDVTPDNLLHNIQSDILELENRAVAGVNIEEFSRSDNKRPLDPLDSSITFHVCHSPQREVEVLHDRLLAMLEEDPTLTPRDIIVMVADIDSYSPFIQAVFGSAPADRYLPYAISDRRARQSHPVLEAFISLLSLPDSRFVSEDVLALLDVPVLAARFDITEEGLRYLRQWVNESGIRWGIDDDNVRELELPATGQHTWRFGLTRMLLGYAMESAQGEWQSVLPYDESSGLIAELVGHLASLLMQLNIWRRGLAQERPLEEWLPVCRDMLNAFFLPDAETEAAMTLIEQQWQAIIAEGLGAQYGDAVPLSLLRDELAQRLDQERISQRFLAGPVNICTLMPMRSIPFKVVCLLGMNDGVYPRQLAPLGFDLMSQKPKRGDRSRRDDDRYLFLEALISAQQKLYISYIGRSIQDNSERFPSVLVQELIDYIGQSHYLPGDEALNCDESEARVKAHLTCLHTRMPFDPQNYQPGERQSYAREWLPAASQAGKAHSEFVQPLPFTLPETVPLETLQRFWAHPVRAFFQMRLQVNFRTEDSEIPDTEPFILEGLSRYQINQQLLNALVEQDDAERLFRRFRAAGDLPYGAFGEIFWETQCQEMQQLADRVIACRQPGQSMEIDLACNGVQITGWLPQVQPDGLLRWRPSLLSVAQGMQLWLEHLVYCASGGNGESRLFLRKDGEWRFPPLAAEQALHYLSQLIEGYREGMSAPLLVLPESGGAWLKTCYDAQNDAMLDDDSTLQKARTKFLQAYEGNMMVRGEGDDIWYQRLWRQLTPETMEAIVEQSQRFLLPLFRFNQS
Chain of Exodeoxyribonuclease V (P08394 whole entry): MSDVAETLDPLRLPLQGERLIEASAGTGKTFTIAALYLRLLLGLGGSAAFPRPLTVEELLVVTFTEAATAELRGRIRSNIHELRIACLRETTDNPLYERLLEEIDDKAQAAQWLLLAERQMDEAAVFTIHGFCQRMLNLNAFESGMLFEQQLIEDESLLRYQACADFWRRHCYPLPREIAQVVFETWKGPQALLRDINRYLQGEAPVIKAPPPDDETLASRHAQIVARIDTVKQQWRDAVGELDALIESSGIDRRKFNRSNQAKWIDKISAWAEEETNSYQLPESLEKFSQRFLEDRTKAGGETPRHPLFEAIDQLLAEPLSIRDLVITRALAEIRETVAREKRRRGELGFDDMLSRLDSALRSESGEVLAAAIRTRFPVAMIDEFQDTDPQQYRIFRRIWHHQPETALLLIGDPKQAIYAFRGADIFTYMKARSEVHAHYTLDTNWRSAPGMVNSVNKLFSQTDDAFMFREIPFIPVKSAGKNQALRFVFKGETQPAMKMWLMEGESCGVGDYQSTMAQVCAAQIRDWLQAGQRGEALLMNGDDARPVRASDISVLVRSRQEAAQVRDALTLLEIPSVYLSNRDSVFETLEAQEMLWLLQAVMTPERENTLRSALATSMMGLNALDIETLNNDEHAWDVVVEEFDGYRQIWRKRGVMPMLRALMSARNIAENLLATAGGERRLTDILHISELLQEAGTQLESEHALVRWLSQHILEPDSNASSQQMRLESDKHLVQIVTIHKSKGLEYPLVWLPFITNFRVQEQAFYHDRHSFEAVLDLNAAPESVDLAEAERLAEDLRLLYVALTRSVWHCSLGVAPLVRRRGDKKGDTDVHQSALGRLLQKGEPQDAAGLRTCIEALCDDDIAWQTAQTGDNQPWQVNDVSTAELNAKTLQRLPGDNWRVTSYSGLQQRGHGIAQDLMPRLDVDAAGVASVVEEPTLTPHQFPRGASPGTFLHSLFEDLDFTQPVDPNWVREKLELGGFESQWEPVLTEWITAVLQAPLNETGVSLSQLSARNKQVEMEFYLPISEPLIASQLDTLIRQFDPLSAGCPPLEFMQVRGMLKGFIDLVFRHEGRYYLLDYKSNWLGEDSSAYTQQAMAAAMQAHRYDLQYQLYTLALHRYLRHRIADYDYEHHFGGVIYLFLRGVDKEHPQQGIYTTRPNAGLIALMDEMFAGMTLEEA

CCOC(=O)c1ccc(NC(=O)Cn2cnc3cc(C)c(C)cc32)cc1
IC50 (Exodeoxyribonuclease V): > 119 µM (inactive) | IC50 [1]: > 80 µM (inactive) | IC50 [2]: > 119 µM (inactive) | AC50 (INS1): 4.42 µM (active) | IC50 (Protein Wnt-3a): 931 nM (active)

COc1cc2c(OC(C)=O)c3c(c(-c4ccc5c(c4)OCO5)c2cc1OC)C(=O)OC3
EC50 [3]: 8.65 µM (active) | EC50 [4]: 14.4 µM (active) | EC50 [5]: 4.4 µM (active) | IC50 (Vero): 21.1 µM (active) | AC50 [6]: 1.8 µM (active) | AC50 [7]: 1.38 µM (active) | AC50 [8]: 24.5 µM (active) | IC50 [9]: 1.83 µM (active)

O=C(Nc1ccccc1)C1=C[C@H](c2ccccc2)C[C@H](OCCCCO)O1
EC50 [10]: 11.6 µM (active) | EC50 [11]: 9.7 µM (active) | EC50 (H4): 22 µM (active) | EC50 [12]: 27.7 µM (active)

CS/C(=C/[N+](=O)[O-])Nc1cccc2c1C(C)CC2(C)C (stereo not given)
AC50 [13]: 17.5 µM (active) | EC50 (Protein RecA): 5.21 µM (active) | IC50 [14]: 44.8 µM (inactive)
